Measurements published in publication PMC4150738 (Analytica chimica acta, 2014).
Where two headings read alike, the source gives them in different places.

Tests used:
[1] = Short-term stability in fortified plasma; format: physicochemical, human
[2] = for change of plasma concentration without the deconjugation step (hydrolysis): rat plasma after 0.5 mg kg-1 MDPV ip or sc, with vs without hydrolysis; for plasma concentration, Without hydrolysis / plasma concentration, Hydrolysis / plasma concentration range after intraperitoneal dosing / plasma concentration range after the subcutaneous dose: rat plasma; for plasma concentration, Without hydrolysis / plasma concentration, Hydrolysis: LOQ 0.25 μg L^−1; for plasma concentration, Hydrolysis: with hydrolysis; for plasma concentration range after intraperitoneal dosing: 0.5 mg kg^−1 MDPV intraperitoneal; for plasma concentration range after intraperitoneal dosing / plasma concentration range after the subcutaneous dose: samples 10-480 min after dosing; for plasma concentration range after the subcutaneous dose: 0.5 mg kg^−1 MDPV subcutaneous
[3] = test system: monoamine transporter; details: in vitro transporter assays, similar to cocaine; ref 13 (Baumann et al.); cited from earlier work
[4] = ref 24 (Wang et al); cited from earlier work
[5] = cited from earlier work
[6] = 1,000 μg L^−1, room temp, 4°C and −20°C for 1 to 14 days; ref 29 (Johnson et al); cited from earlier work
[7] = ref 24 (Wang et al), cited from earlier work
[8] = High QC 750 μg L^−1, n=5, vs freshly fortified
[9] = Low QC 0.75 μg L^−1, n=5, vs freshly fortified
[10] = Medium QC 25 μg L^−1, n=5, vs freshly fortified
[11] = 0.5 mg kg-1 MDPV ip, 0 min (before dosing)
[12] = 0.5 mg kg-1 MDPV sc, 0 min (before dosing)

## CCCC(C(=O)c1ccc(O)c(OC)c1)N1CCCC1 (centres unmarked) [4-OH-3-MeO-PV, 4-hydroxy-3-methoxypyrovalerone]
[1]; [8]
  Stability (% difference) 3 freeze-thaw cycles: −0.5 % difference
  Stability (% difference) 72h at 4°C: −1.5 % difference
[1]; [9]
  Stability (% difference) 3 freeze-thaw cycles: 3.5 % difference
  Stability (% difference) 72h at 4°C: 3.9 % difference
[1]; [10]
  Stability (% difference) 3 freeze-thaw cycles: −0.5 % difference
  Stability (% difference) 72h at 4°C: 6 % difference
[2]
  change of plasma concentration without the deconjugation step (hydrolysis): greatly decreased
  plasma concentration range after intraperitoneal dosing: 9.3 to 84.7 ng/mL
  plasma concentration range after the subcutaneous dose: 3.2 to 54.4 ng/mL
[2]; rat plasma after MDPV, concluded from hydrolysis comparison
  form present in rat plasma: primarily present as the conjugated forms
[2]; [11]
  plasma concentration, Without hydrolysis: <LOQ
[2]; 0.5 mg kg-1 MDPV ip, 10 min
  plasma concentration, Hydrolysis: 9.3 ng/mL
  plasma concentration, Without hydrolysis: 0.9 ng/mL
[2]; 0.5 mg kg-1 MDPV ip, 20 min
  plasma concentration, Hydrolysis: 11.8 ng/mL
  plasma concentration, Without hydrolysis: 0.7 ng/mL
[2]; 0.5 mg kg-1 MDPV ip, 30 min
  plasma concentration, Hydrolysis: 12.3 ng/mL
  plasma concentration, Without hydrolysis: 0.7 ng/mL
[2]; 0.5 mg kg-1 MDPV ip, 60 min
  plasma concentration, Hydrolysis: 14.1 ng/mL
  plasma concentration, Without hydrolysis: <LOQ
[2]; 0.5 mg kg-1 MDPV ip, 120 min
  plasma concentration, Hydrolysis: 68.9 ng/mL
  plasma concentration, Without hydrolysis: 0.5 ng/mL
[2]; 0.5 mg kg-1 MDPV ip, 240 min
  plasma concentration, Hydrolysis: 84.7 ng/mL
  plasma concentration, Without hydrolysis: 0.5 ng/mL
[2]; 0.5 mg kg-1 MDPV ip, 480 min
  plasma concentration, Hydrolysis: 23.6 ng/mL
  plasma concentration, Without hydrolysis: <LOQ
[2]; [12]
  plasma concentration, Without hydrolysis: <LOQ
[2]; 0.5 mg kg-1 MDPV sc, 10 min
  plasma concentration, Hydrolysis: 3.2 ng/mL
  plasma concentration, Without hydrolysis: 1.1 ng/mL
[2]; 0.5 mg kg-1 MDPV sc, 20 min
  plasma concentration, Hydrolysis: 6.1 ng/mL
  plasma concentration, Without hydrolysis: 1.2 ng/mL
[2]; 0.5 mg kg-1 MDPV sc, 30 min
  plasma concentration, Hydrolysis: 6.7 ng/mL
  plasma concentration, Without hydrolysis: 1.1 ng/mL
[2]; 0.5 mg kg-1 MDPV sc, 60 min
  plasma concentration, Hydrolysis: 11 ng/mL
  plasma concentration, Without hydrolysis: 0.9 ng/mL
[2]; 0.5 mg kg-1 MDPV sc, 120 min
  plasma concentration, Hydrolysis: 44.7 ng/mL
  plasma concentration, Without hydrolysis: 0.7 ng/mL
[2]; 0.5 mg kg-1 MDPV sc, 240 min
  plasma concentration, Hydrolysis: 54.4 ng/mL
  plasma concentration, Without hydrolysis: 0.4 ng/mL
[2]; 0.5 mg kg-1 MDPV sc, 480 min
  plasma concentration, Hydrolysis: 11 ng/mL
  plasma concentration, Without hydrolysis: <LOQ

## CCCC(C(=O)c1ccc2c(c1)OCO2)N1CCCC1 (centres unmarked) [MDPV, 3,4-methylenedioxypyrovalerone, reference compound]
[1]; [8]
  Stability (% difference) 3 freeze-thaw cycles: 1.5 % difference
  Stability (% difference) 72h at 4°C: 3.5 % difference
[1]; [9]
  Stability (% difference) 3 freeze-thaw cycles: 3.5 % difference
  Stability (% difference) 72h at 4°C: 7.7 % difference
[1]; [10]
  Stability (% difference) 3 freeze-thaw cycles: −1.1 % difference
  Stability (% difference) 72h at 4°C: 2.2 % difference
[3]
  monoamine transporter blockade: potent monoamine transporter blocker
[4]
  concentration in plasma, horse-doping: 5.8 ng/mL
[5]; 9 human performance cases, ref 26 (Marinetti et al.)
  MDPV blood concentrations, human performance cases: 6 to 368 µg/L
[5]; 23 postmortem cases, ref 26 (Marinetti et al.)
  MDPV blood concentrations, postmortem cases: 10 to 640 µg/L
[5]; Finnish drivers stopped for suspicion of driving under the influence of drugs, ref 25 (Kriikku et al.)
  serum MDPV concentrations: 20 to 8000 µg/L
[5]
  MDPV concentrations in human plasma, in most cases: below 1000 μg L^−1
[6]
  stability in fortified plasma: stable
[7]; at room temperature
  stability of MDPV in plasma, time stable: 27 h
[7]; at −20°C
  stability of MDPV in plasma, time stable: 600 h
[7]
  stability of MDPV in plasma, freeze-thaw cycles: 3 freeze-thaw cycles
[2]
  change of plasma concentration without the deconjugation step (hydrolysis): did not change
  plasma concentration range after intraperitoneal dosing: 0.9 to 8.0 ng/mL
  plasma concentration range after the subcutaneous dose: 1.7 to 107.5 ng/mL
[2]; [11]
  plasma concentration, Without hydrolysis: <LOQ
[2]; 0.5 mg kg-1 MDPV ip, 10 min
  plasma concentration, Hydrolysis: 8.0 ng/mL
  plasma concentration, Without hydrolysis: 9.4 ng/mL
[2]; 0.5 mg kg-1 MDPV ip, 20 min
  plasma concentration, Hydrolysis: 6.6 ng/mL
  plasma concentration, Without hydrolysis: 7.2 ng/mL
[2]; 0.5 mg kg-1 MDPV ip, 30 min
  plasma concentration, Hydrolysis: 7.6 ng/mL
  plasma concentration, Without hydrolysis: 8.4 ng/mL
[2]; 0.5 mg kg-1 MDPV ip, 60 min
  plasma concentration, Hydrolysis: 3.6 ng/mL
  plasma concentration, Without hydrolysis: 2.9 ng/mL
[2]; 0.5 mg kg-1 MDPV ip, 120 min
  plasma concentration, Hydrolysis: 1.8 ng/mL
  plasma concentration, Without hydrolysis: 2.2 ng/mL
[2]; 0.5 mg kg-1 MDPV ip, 240 min
  plasma concentration, Hydrolysis: 1.3 ng/mL
  plasma concentration, Without hydrolysis: 0.6 ng/mL
[2]; 0.5 mg kg-1 MDPV ip, 480 min
  plasma concentration, Hydrolysis: 0.9 ng/mL
  plasma concentration, Without hydrolysis: 1.2 ng/mL
[2]; [12]
  plasma concentration, Without hydrolysis: <LOQ
[2]; 0.5 mg kg-1 MDPV sc, 10 min
  plasma concentration, Hydrolysis: 107.5 ng/mL
  plasma concentration, Without hydrolysis: 120.1 ng/mL
[2]; 0.5 mg kg-1 MDPV sc, 20 min
  plasma concentration, Hydrolysis: 82.1 ng/mL
  plasma concentration, Without hydrolysis: 92.9 ng/mL
[2]; 0.5 mg kg-1 MDPV sc, 30 min
  plasma concentration, Hydrolysis: 51.7 ng/mL
  plasma concentration, Without hydrolysis: 56.6 ng/mL
[2]; 0.5 mg kg-1 MDPV sc, 60 min
  plasma concentration, Hydrolysis: 38.4 ng/mL
  plasma concentration, Without hydrolysis: 34 ng/mL
[2]; 0.5 mg kg-1 MDPV sc, 120 min
  plasma concentration, Hydrolysis: 9.9 ng/mL
  plasma concentration, Without hydrolysis: 1.5 ng/mL
[2]; 0.5 mg kg-1 MDPV sc, 240 min
  plasma concentration, Hydrolysis: 4.8 ng/mL
  plasma concentration, Without hydrolysis: 3.1 ng/mL
[2]; 0.5 mg kg-1 MDPV sc, 480 min
  plasma concentration, Hydrolysis: 1.7 ng/mL
  plasma concentration, Without hydrolysis: 1.4 ng/mL
